pIC50: −log10 of the molar value. Calls of active or inactive are those of the source. No cut-off for these calls is given here.
How the values were obtained:
[1] = test system: MCF7; experiment: Induction of mitochondrial apoptosis in human MCF7 cells assessed as late apoptotic cells at 15 uM measured after 24 hrs by FITC -annexin V/PI double staining based flow cytometric analysis (reference value: 1.1%); type: functional
[2] = target: T1, Tyrosine-protein phosphatase non-receptor type 1 (Homo sapiens, UniProt P18031); experiment: Inhibition of PTP1B (unknown origin)
T1 sequence (P18031 whole entry): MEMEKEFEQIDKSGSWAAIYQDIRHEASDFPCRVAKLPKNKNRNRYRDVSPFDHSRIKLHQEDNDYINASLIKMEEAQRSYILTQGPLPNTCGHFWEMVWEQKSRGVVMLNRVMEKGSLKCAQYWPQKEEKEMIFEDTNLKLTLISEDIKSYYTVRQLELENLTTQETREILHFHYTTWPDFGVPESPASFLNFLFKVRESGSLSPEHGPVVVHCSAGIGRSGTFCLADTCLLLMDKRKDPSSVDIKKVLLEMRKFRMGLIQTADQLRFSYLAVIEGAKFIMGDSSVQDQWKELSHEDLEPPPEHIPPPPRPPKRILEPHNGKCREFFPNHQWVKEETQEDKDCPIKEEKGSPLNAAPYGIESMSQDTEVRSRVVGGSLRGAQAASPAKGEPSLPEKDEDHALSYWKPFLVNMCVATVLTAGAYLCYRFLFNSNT

[3] = test system: MCF7; experiment: Cell cycle arrest in human MCF-7 cells assessed as upregulation of p21 level by Western blot analysis; type: functional, cell-based
[4] = test system: MCF7; experiment: Cell cycle arrest in human MCF-7 cells assessed as downregulation of CDK6 expression by Western blot analysis; type: functional, cell-based
[5] = test system: MDA-MB-231; experiment: Induction of mitochondrial apoptosis in human MDA-MB-231 cells assessed as early apoptotic cells at 5 uM measured after 24 hrs by FITC -annexin V/PI double staining based flow cytometric analysis (reference value: 1.2%); type: functional
[6] = test system: MDA-MB-231; experiment: Inhibition of PI3K p85 phosphorylation in human MDA-MB-231 cells by Western blot analysis; type: cell-based
[7] = test system: MDA-MB-231; experiment: Induction of mitochondrial apoptosis in human MDA-MB-231 cells assessed as accumulation of reactive oxygen species by flow cytometry; type: functional, cell-based
[8] = test system: MCF7; experiment: Induction of mitochondrial apoptosis in human MCF-7 cells assessed as accumulation of reactive oxygen species by flow cytometry; type: functional, cell-based
[9] = test system: MDA-MB-231; experiment: Induction of mitochondrial apoptosis in human MDA-MB-231 cells assessed as chromatin shrinkage by Hoechst 33258 staining based fluorescence microscopic assay; type: functional, cell-based
[10] = test system: MDA-MB-231; experiment: Antitumour activity against human MDA-MB-231 cells xenografted in BALB/c nude mouse assessed as downregulation of Bcl-2 level at 15 to 30 mg/kg, ip administered once for every other day for 20 days by Western blot analysis; type: functional, organism-based; details: dose 15-30 mg/kg, time 20.0 day
[11] = test system: MCF7; experiment: Antiproliferative activity against human MCF-7 cells measured by MTT assay; type: functional, cell-based
[12] = test system: MCF7; experiment: Inhibition of PI3K p85 phosphorylation in human MCF7 cells by Western blot analysis; type: cell-based
[13] = test system: MDA-MB-231; experiment: Induction of mitochondrial apoptosis in human MDA-MB-231 cells assessed as late apoptotic cells at 5 uM measured after 24 hrs by FITC -annexin V/PI double staining based flow cytometric analysis (reference value: 2.3%); type: functional
[14] = test system: MCF7; experiment: Induction of mitochondrial apoptosis in human MCF7 cells assessed as early apoptotic cells at 15 uM measured after 24 hrs by FITC -annexin V/PI double staining based flow cytometric analysis (reference value: 2.4%); type: functional
[15] = test system: MCF7; experiment: Cell cycle arrest in human MCF-7 cells assessed as downregulation of cyclin D3 expression by Western blot analysis; type: functional, cell-based
[16] = test system: MDA-MB-231; experiment: Induction of apoptosis in human MDA-MB-231 cells assessed as increase in production of cleaved caspase-3 at 0.56 to 5 uM measured after 24 hrs by Western blot analysis; type: functional, cell-based; details: dose 0.56-5 µM
[17] = test system: MDA-MB-231; experiment: Induction of mitochondrial apoptosis in human MDA-MB-231 cells assessed as decrease in mitochondrial membrane potential levels at 5 uM measured after 24 hrs by flow cytometry; type: functional; set-up: scale not given: the % may be the effect or the level left
[18] = test system: MDA-MB-231; experiment: Effect on PI3K p85 expression in human MDA-MB-231 cells by Western blot analysis; type: functional, cell-based
[19] = test system: MDA-MB-231; experiment: Cell cycle arrest in human MDA-MB-231 cells assessed as downregulation of CDK2 expression by Western blot analysis; type: functional, cell-based
[20] = test system: MCF7; experiment: Induction of mitochondrial apoptosis in human MCF-7 cells assessed as membrane blebbing by Hoechst 33258 staining based fluorescence microscopic assay; type: functional, cell-based
[21] = test system: MDA-MB-231; experiment: Induction of apoptosis in human MDA-MB-231 cells assessed as increase in Bax protein expression at 0.56 to 5 uM measured after 24 hrs by Western blot analysis; type: functional, cell-based; details: dose 0.56-5 µM
[22] = Selective index, ratio of IC50 for human 293T cells to IC50 of MDA-MB-231 cells; type: toxicity; details: 293T cells versus MDA-MB-231 cells, read-out: Selectivity Index
[23] = test system: MDA-MB-231; experiment: Cell cycle arrest in human MDA-MB-231 cells assessed as accumulation of cells at G0/G1 phase at 5 uM measured after 24 hrs by propidium iodide staining based flow cytometry (reference value: 44%); type: functional
[24] = test system: MCF7; experiment: Cell cycle arrest in human MCF7 cells assessed as accumulation of cells at S phase at 15 uM measured after 24 hrs by propidium iodide staining based flow cytometry (reference value: 16.8%); type: functional
[25] = test system: MCF7; experiment: Inhibition of PTP1B expression in human MCF7 cells by Western blot analysis; type: functional, cell-based
[26] = test system: MDA-MB-231; experiment: Induction of apoptosis in human MDA-MB-231 cells assessed as upregulation of cleaved poly(ADP-ribose) polymerase level at 0.56 to 5 uM measured after 24 hrs by Western blot analysis; type: functional, cell-based; details: dose 0.56-5 µM
[27] = test system: MCF7; experiment: Cell cycle arrest in human MCF-7 cells assessed as downregulation of cyclin D1 expression by Western blot analysis; type: functional, cell-based
[28] = test system: MDA-MB-231; experiment: Inhibition of PTP1B expression in human MDA-MB-231 cells by Western blot analysis; type: functional, cell-based
[29] = test system: MCF7; experiment: Antiproliferative activity against human MCF-7 cells assessed as effect on cell viability at 1.67-15 uM for 24 hrs measured by MTT assay; type: functional, cell-based
[30] = test system: MCF7; experiment: Induction of apoptosis in human MCF-7 cells assessed as increase in production of cleaved caspase-3 at 1.67 to 15 uM measured after 24 hrs by Western blot analysis; type: functional, cell-based; details: dose 1.67-15 µM
[31] = test system: MCF7; experiment: Induction of apoptosis in human MCF-7 cells assessed as increase in production of cleaved caspase-9 at 1.67 to 15 uM measured after 24 hrs by Western blot analysis; type: functional, cell-based; details: dose 1.67-15 µM
[32] = test system: MDA-MB-231; experiment: Antitumour activity against human MDA-MB-231 cells xenografted in BALB/c nude mouse assessed as downregulation of cyclin E1 level at 15 to 30 mg/kg, ip administered once for every other day for 20 days by Western blot analysis; type: functional, organism-based; details: dose 15-30 mg/kg, time 20.0 day
[33] = test system: MCF7; experiment: Cell cycle arrest in human MCF7 cells assessed as accumulation of cells at G2/M phase at 15 uM measured after 24 hrs by propidium iodide staining based flow cytometry (reference value: 31%); type: functional
[34] = test system: MDA-MB-231; experiment: Cell cycle arrest in human MDA-MB-231 cells assessed as downregulation of CDK6 expression by Western blot analysis; type: functional, cell-based

CCCC/C=C/CCCCCCCCCC1(O)CC(=O)c2c(O)c(C)c(O)c(C)c2O1 (centres undefined)
Activity [1]: 8.9%
pIC50 [2]: 5.74
Activity [3]: Dose-Dependent Effect
Activity [4]: Dose-Dependent Effect
Activity [5]: 4.8%
inhibition [6]: Dose-Dependent Effect
Activity [7]: Active
Activity [8]: Active
Activity [9]: Active
Activity [10]: Active
pIC50 [11]: 4.76
inhibition [12]: Dose-Dependent Effect
Activity [13]: 7%
Activity [14]: 7.8%
Activity [15]: Dose-Dependent Effect
Activity [16]: Dose-Dependent Effect
Activity [17]: 62.2%
Activity [18]: inactive
Activity [19]: Dose-Dependent Effect
Activity [20]: Active
Activity [21]: Dose-Dependent Effect
selectivity ratio [22]: 5.35
Activity [23]: 62.4%
Activity [24]: 10.3%
Activity [25]: Active
Activity [26]: Active
Activity [27]: Dose-Dependent Effect
Activity [28]: Active
Activity [29]: inactive
Activity [30]: Dose-Dependent Effect
Activity [31]: Dose-Dependent Effect
Activity [32]: Active
Activity [33]: 22.7%
Activity [34]: Dose-Dependent Effect

— ChEMBL document CHEMBL5030514, “Discovery of Anti-TNBC Agents Targeting PTP1B: Total Synthesis, Structure-Activity Relationship, In Vitro and In Vivo Investigations of Jamunones” (J Med Chem, 2021)
